Source: the supplement of paper PMC10307832

Assays:
Experiment in all cases: relative viability (nuclei count vs DMSO), 5 days (fraction); higher = more cells survive
[1] = test system: NCI-H2405
Method in brief: (§1)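 Relative viability equals treated-well nuclei counts divided by vehicle-well nuclei counts. Counts came from 4× images of lung cancer cell lines grown in 1536-well plates for 5 days after pin-tool dosing on the day after seeding. Dosing used one drug alone or a fixed anchor-drug dose plus five library-drug doses (not always all listed) in √10 steps, and values are medians of duplicate plates.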

[2] = test system: NCI-H2023
Method in brief: as §1

[3] = test system: NCI-H520
Method in brief: as §1

[4] = test system: COR-L23
Method in brief: as §1

[5] = test system: NCI-H1793
Method in brief: as §1

[6] = test system: NCI-H650
Method in brief: as §1

[7] = test system: HCC-44
Method in brief: as §1

[8] = test system: EMC-BAC-2
Method in brief: as §1

[9] = test system: LU99A
Method in brief: as §1

[10] = test system: HCC-827
Method in brief: as §1

[11] = test system: NCI-H1651
Method in brief: as §1

[12] = test system: H3255
Method in brief: as §1

[13] = test system: NCI-H1563
Method in brief: as §1

[14] = test system: NCI-H2087
Method in brief: as §1

[15] = test system: NCI-H838
Method in brief: as §1

[16] = test system: EPLC-272H
Method in brief: as §1

[17] = test system: NCI-H1944
Method in brief: as §1

[18] = test system: ChaGo-K-1
Method in brief: as §1

[19] = test system: SK-MES-1
Method in brief: as §1

[20] = test system: LCLC-103H
Method in brief: as §1

[21] = test system: NCI-H1395
Method in brief: as §1

[22] = test system: NCI-H2085
Method in brief: as §1

## Cc1sc2c(c1C)C(c1ccc(Cl)cc1)=N[C@@H](CC(=O)OC(C)(C)C)c1nnc(C)n1-2 [JQ1] + CS(=O)(=O)N1CCN(Cc2cc3nc(-c4cccc5[nH]ncc45)nc(N4CCOCC4)c3s2)CC1 [Pictilisib] (partner 1 µM)
[1]; first compound 0.04 µM
  relative viability: 0.536
[1]; first compound 0.4 µM
  relative viability: 0.405
[1]; first compound 1.265 µM
  relative viability: 0.263
[1]; first compound 4 µM
  relative viability: 0.221
[2]; first compound 0.04 µM
  relative viability: 0.234
[2]; first compound 0.1265 µM
  relative viability: 0.268
[2]; first compound 0.4 µM
  relative viability: 0.196
[2]; first compound 1.265 µM
  relative viability: 0.161
[2]; first compound 4 µM
  relative viability: 0.156
[3]; first compound 0.04 µM
  relative viability: 0.282
[3]; first compound 0.1265 µM
  relative viability: 0.283
[3]; first compound 0.4 µM
  relative viability: 0.253
[3]; first compound 1.265 µM
  relative viability: 0.174
[3]; first compound 4 µM
  relative viability: 0.214
[4]; first compound 0.04 µM
  relative viability: 0.805
[4]; first compound 0.1265 µM
  relative viability: 0.692
[4]; first compound 0.4 µM
  relative viability: 0.524
[4]; first compound 1.265 µM
  relative viability: 0.3
[4]; first compound 4 µM
  relative viability: 0.202
[5]; first compound 0.04 µM
  relative viability: 0.434
[5]; first compound 0.1265 µM
  relative viability: 0.391
[5]; first compound 0.4 µM
  relative viability: 0.564
[5]; first compound 1.265 µM
  relative viability: 0.339
[5]; first compound 4 µM
  relative viability: 0.453
[6]; first compound 0.04 µM
  relative viability: 0.746
[6]; first compound 0.1265 µM
  relative viability: 0.654
[6]; first compound 0.4 µM
  relative viability: 0.499
[6]; first compound 1.265 µM
  relative viability: 0.283
[6]; first compound 4 µM
  relative viability: 0.273
[7]; first compound 0.04 µM
  relative viability: 0.623
[7]; first compound 0.1265 µM
  relative viability: 0.498
[7]; first compound 0.4 µM
  relative viability: 0.532
[7]; first compound 1.265 µM
  relative viability: 0.294
[7]; first compound 4 µM
  relative viability: 0.213
[8]; first compound 0.04 µM
  relative viability: 0.551
[8]; first compound 0.1265 µM
  relative viability: 0.499
[8]; first compound 0.4 µM
  relative viability: 0.565
[8]; first compound 1.265 µM
  relative viability: 0.27
[8]; first compound 4 µM
  relative viability: 0.26
[9]; first compound 0.04 µM
  relative viability: 0.322
[9]; first compound 0.1265 µM
  relative viability: 0.32
[9]; first compound 0.4 µM
  relative viability: 0.398
[9]; first compound 1.265 µM
  relative viability: 0.201
[9]; first compound 4 µM
  relative viability: 0.203
[10]; first compound 0.04 µM
  relative viability: 1.06
[10]; first compound 0.4 µM
  relative viability: 0.544
[10]; first compound 1.265 µM
  relative viability: 0.911
[10]; first compound 4 µM
  relative viability: 0.752
[11]; first compound 0.04 µM
  relative viability: 0.476
[11]; first compound 0.1265 µM
  relative viability: 0.451
[11]; first compound 0.4 µM
  relative viability: 0.335
[11]; first compound 1.265 µM
  relative viability: 0.271
[11]; first compound 4 µM
  relative viability: 0.245
[12]; first compound 0.04 µM
  relative viability: 0.468
[12]; first compound 0.1265 µM
  relative viability: 0.464
[12]; first compound 0.4 µM
  relative viability: 0.552
[12]; first compound 1.265 µM
  relative viability: 0.381
[12]; first compound 4 µM
  relative viability: 0.338
[13]; first compound 0.04 µM
  relative viability: 0.606
[13]; first compound 0.1265 µM
  relative viability: 0.645
[13]; first compound 0.4 µM
  relative viability: 0.611
[13]; first compound 1.265 µM
  relative viability: 0.622
[13]; first compound 4 µM
  relative viability: 0.638
[14]; first compound 0.04 µM
  relative viability: 0.792
[14]; first compound 0.4 µM
  relative viability: 1.05
[14]; first compound 1.265 µM
  relative viability: 0.318
[14]; first compound 4 µM
  relative viability: 0.384
[15]; first compound 0.04 µM
  relative viability: 0.397
[15]; first compound 0.1265 µM
  relative viability: 0.3
[15]; first compound 0.4 µM
  relative viability: 0.319
[15]; first compound 1.265 µM
  relative viability: 0.208
[15]; first compound 4 µM
  relative viability: 0.232
[16]; first compound 0.04 µM
  relative viability: 0.298
[16]; first compound 0.1265 µM
  relative viability: 0.326
[16]; first compound 0.4 µM
  relative viability: 0.301
[16]; first compound 1.265 µM
  relative viability: 0.223
[16]; first compound 4 µM
  relative viability: 0.184
[17]; first compound 0.04 µM
  relative viability: 0.357
[17]; first compound 0.1265 µM
  relative viability: 0.332
[17]; first compound 0.4 µM
  relative viability: 0.311
[17]; first compound 1.265 µM
  relative viability: 0.288
[17]; first compound 4 µM
  relative viability: 0.307
[18]; first compound 0.04 µM
  relative viability: 0.752
[18]; first compound 0.4 µM
  relative viability: 0.658
[18]; first compound 1.265 µM
  relative viability: 0.407
[18]; first compound 4 µM
  relative viability: 0.43
[19]; first compound 0.04 µM
  relative viability: 0.351
[19]; first compound 0.1265 µM
  relative viability: 0.299
[19]; first compound 0.4 µM
  relative viability: 0.298
[19]; first compound 1.265 µM
  relative viability: 0.179
[19]; first compound 4 µM
  relative viability: 0.202
[20]; first compound 0.04 µM
  relative viability: 0.571
[20]; first compound 0.1265 µM
  relative viability: 0.522
[20]; first compound 0.4 µM
  relative viability: 0.537
[20]; first compound 1.265 µM
  relative viability: 0.4
[20]; first compound 4 µM
  relative viability: 0.352
[21]; first compound 0.04 µM
  relative viability: 0.652
[21]; first compound 0.1265 µM
  relative viability: 0.582
[21]; first compound 0.4 µM
  relative viability: 0.62
[21]; first compound 1.265 µM
  relative viability: 0.403
[21]; first compound 4 µM
  relative viability: 0.407
[22]; first compound 0.04 µM
  relative viability: 0.462
[22]; first compound 0.1265 µM
  relative viability: 0.497
[22]; first compound 0.4 µM
  relative viability: 0.441
[22]; first compound 1.265 µM
  relative viability: 0.368
[22]; first compound 4 µM
  relative viability: 0.385
